Measured values: patent US7855228B2, “Antibiotics targeting MreB” (The Board of Trustees of the Leland Stamford Junior …, priority 2005, dated 2010)
≈ marks a conversion by molar mass, not a printed value. Where two headings read alike, the source gives them in different places.

What was measured:
E. coli MG1655 [1] = experiment: Determination of minimum inhibitory concentration (MIC); format: cell-based; conditions: Escherichia coli, read-out: MIC E. coli
Summary of the method: (§1)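 Two-fold serial agar dilution on L agar and also on Mueller Hinton agar (pH 7.3); 10 µl of stationary-phase culture diluted in 0.85% NaCl to 10^6 cells/ml spotted per plate. MIC taken as lowest concentration inhibiting growth.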

B. subtilis 168 = experiment: as above; format: cell-based, Bacillus subtilis; conditions: read-out: MIC B. subtilis
Summary of the method: as §1

E. coli MG1655 [2] = experiment: Microscopic observation of cell shape; format: cell-based; conditions: for Effect on E. coli cell morphology (in words): 3×MIC or 300 μg/ml, 16 hrs
Summary of the method: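 E. coli K-12 MG1655 grown in Lennox broth with 0.1% glucose (pH 7.2), exposed to compound, methanol-fixed 5 min and examined by differential interference contrast microscopy. Anucleate cells scored after DAPI staining (5 μg/ml) using combined fluorescence phase-contrast.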

MreB-GFP fusion protein = target: T1, MreB-GFP fusion protein (Escherichia coli, UniProt P0A9X4); experiment: MreB helical structures in vivo (MreB-GFP); format: cell-based, E. coli; conditions: 10 μg/ml
T1 construct: expressed in transfected cells; host or cells: E. coli JM109 carrying pMreB1-GFP (native mreB promoter)
T1 sequence (P0A9X4 whole entry, the tested form may be a part): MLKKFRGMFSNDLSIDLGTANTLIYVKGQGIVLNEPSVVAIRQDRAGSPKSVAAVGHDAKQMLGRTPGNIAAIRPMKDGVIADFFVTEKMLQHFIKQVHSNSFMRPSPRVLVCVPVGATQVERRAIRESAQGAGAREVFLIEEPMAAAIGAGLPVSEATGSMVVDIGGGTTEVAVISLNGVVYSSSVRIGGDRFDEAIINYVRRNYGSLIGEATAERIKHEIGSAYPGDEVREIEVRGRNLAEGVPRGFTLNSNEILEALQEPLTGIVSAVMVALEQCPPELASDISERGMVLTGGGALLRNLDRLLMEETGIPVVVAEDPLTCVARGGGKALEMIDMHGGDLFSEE
Method: FIG. 11. In vivo effects of A22. Exponentially growing JM109/pMreB1-GFP cells were treated with 10 μg/ml of A22, and changes in cell shape and GFP fluorescence were observed. (a, b) no treatment; (c, d) 30 min after A22 treatment; (e, f) 60 min after A22 treatment; (g, h) 120 min after A22 treatment.
It was recently shown that the MreB forms helical structures in E. coli as well as B. subtilis. […] In rounded cells, MreB-GFP appeared as discrete dots located close to the cell surface (FIGS. 11e-11h), which may be the result of aggregation of MreB-GFP protein de-polymerized by A22.
Construction of a mreB-gfp fusion plasmid A DNA fragment encoding the wild-type mreB gene was PCR-amplified from pMreB1 with primers (SEQ ID NO:5) 5′-[…]-3′ and (SEQ ID NO:6) 5′-[…]-3′. After cutting with Xba I and Nhe I, the PCR-generated DNA fragments were ligated to an XbaI-NheI-cut gfp vector pQIB-T7-GFP (Qbiogene Inc., Irvine, Calif., USA), resulting in an mreB-gfp translational fusion. From the resulting plasmid, an Aor51HI-HindIII fragment encoding the C-terminal portion of MreB fused with GFP was isolated and used to replace the Aor51HI-HindIII fragment of pMreB1, resulting in a plasmid pMreB1-GFP that expresses the MreB-GFP fusion protein from the native mreB promoter. […]

Caulobacter [3] = experiment: Caulobacter morphology (DIC images); format: cell-based, Caulobacter crescentus
Description: Consistent with previous observations in E. coli (Iwai et al., 2002), A22 caused a dose-dependent alteration of Caulobacter morphology, transforming normal, crescent-shaped cells into rounded, lemon-shaped cells. The progression of cell shape deformation by A22 treatment was qualitatively similar to that caused by mreB depletion, though the A22 effect was more rapid (FIGS. […]). […] For example, A22 could disrupt the localization of new cell wall synthesis but have no effect on the existing cell wall, such that without additional growth and wall synthesis A22's effects cannot be perceived. A dependence on cell growth could also explain why A22's effect on morphology takes several hours to manifest.
Microscopy and Timelapse Imaging. All experiments other than the A22 flow-cell analysis were performed by mounting the samples on 1% agarose pads as described, with the appropriate concentration of A22 added to the agarose. The rates of origin-distal locus segregation were determined by inducing PxyI:lacI:cfp expression with 0.03% xylose for 75 min, isolating swarmer cells, and growing the swarmer cells in M2G liquid medium for 50 min. After 50 min, 10 μg/ml of A22 was added to these liquid cultures, they were mounted onto 1% M2G agarose pads containing 10 μg/ml A22, and a phase and CFP fluorescence image was captured every 2 min for 60 min. The images were analyzed by previously described software to determine the average position and rate of movement of the observed foci.

Caulobacter [4] = experiment: Colony formation assay; format: cell-based, Caulobacter crescentus
Description: To assess the impact of A22 on cell division and survival, we examined the effect of A22 on colony formation.

P. putida NBRC14164 = experiment: Determination of minimum inhibitory concentration (MIC); format: cell-based, Pseudomonas putida; conditions: Pseudomonas putida, read-out: MIC P. putida
Summary of the method: as §1

## N=C(N)SCc1ccc(Cl)c(Cl)c1 [Compound 1, S-(3,4-dichlorobenzyl)isothiourea]
E. coli MG1655 [1]; MG1655, Example 2, methods as in Example 1
  MIC: 3.13 µg/mL (≈ 13.3 µM)
E. coli MG1655 [1]; MG1655, Table 1, E. coli MG1655
  MIC: 3.13 µg/mL (≈ 13.3 µM)
B. subtilis 168; Bacillus subtilis, 168, Example 2, methods as in Example 1
  MIC: 100 µg/mL (≈ 425 µM)
B. subtilis 168; Bacillus subtilis, 168, Table 1, B. subtilis 168
  MIC: 100 µg/mL (≈ 425 µM)
E. coli MG1655 [2]; 30° C.
  Effect on E. coli cell morphology (in words): induced a spherical cell shape
E. coli MG1655 [2]; 30° C., listed as A22
  Effect on E. coli cell morphology (in words): induced spherical cells
E. coli MG1655 [2]; E. coli MG1655 treated at 3×MIC (*), 30° C., 16 h
  Shape: Sphere*
E. coli MG1655 [2]; Example 2, methods as in Example 1
  Shape: Sphere
MreB-GFP fusion protein; 30-minute treatment, JM109 cells
  MreB-GFP dots and bands (helical structures): fluorescent dots and bands disappeared
MreB-GFP fusion protein; after 120 minutes
  Cell shape of MreB-GFP expressing JM109 cells: almost spherical
Caulobacter [3]; 100 μg/ml
  Caulobacter growth and cell shape: completely blocked growth but did not cause Caulobacter to round up
Caulobacter [3]; 0.1, 1, and 10 μg/ml
  Caulobacter growth and cell shape: both slowed cell growth and altered cell shape
Caulobacter [4]; 0.1 μg/ml
  Colony formation (CFU): un-perturbed
Caulobacter [4]; 1 μg/ml
  Colony formation (CFU): partially slowed colony formation
Caulobacter [4]; 10 μg/ml and higher
  Colony formation (CFU): completely halted the increase in CFU
P. putida NBRC14164; NBRC14164, Example 2, methods as in Example 1
  MIC: 100 µg/mL (≈ 425 µM)
P. putida NBRC14164; NBRC14164, Table 1, NBRC14164
  MIC: 100 µg/mL (≈ 425 µM)
